Assay [1] deals with B6A/J mice. The assay is described as follows: 10-week batimastat treatment of 12Mo B6A/J mice, gastrocnemius histopathology. The class given is in vivo, mouse. Here is the method: (§1) Whether this effect of batimastat to repress FAP adipogenesis can improve muscle histopathology was tested in vivo. 12Mo B6A/J mice were treated for 10 weeks with batimastat (2 mg/kg i.p. 3× weekly). […] To determine if this reduction in adipogenic replacement was due to an effect on just FAP differentiation or also on FAP proliferation, FAP accumulation was quantified by PDGFRα labeling and no effect of batimastat treatment on FAP number was found (FIG. 12). […] Thus, inhibition of adipogenesis by batimastat is not due to reduced FAP numbers or improved myofiber repair. To further confirm the ability of batimastat to prevent dysferlinopathic muscle from injury-triggered FAP adipogenesis, we employed the repeat notexin-induced TA injury approach which induces significant adipogenic replacement of the muscle (FIG. 6D and FIG. 6E). […] Given that FAP numbers are unaffected by batimastat treatment, it was examined whether these batimastat treatment causes cells to adopt a fibrogenic fate by blocking their adipogenic differentiation. However, no change in intra-muscular fibrosis was observed as a result of batimastat treatment in either the gastrocnemius or injured TA (FIG. 12). Taken together, the above results both confirm the essential nature of FAP adipogenesis for the adipogenic conversion of dysferlinopathic muscle, and highlight the potential of batimastat to arrest the progressive and even late stage adipogenic replacement of dysferlinopathic muscle.
Immunohistochemical Analysis of Muscle Sections. Frozen sections 8 μm thick were cut from human biopsies and the midbelly of mouse muscles. Lipid was visualized using an Oil Red O staining kit (American MasterTech, #KTORO) according to manufacturer's instructions. […]
(§2) Microscopy and Image Analysis. […] Perilipin-1 quantification was performed by thresholding the image to exclude non-specific staining and then calculating the area of each lipid deposit encircled by perlipin-1 (excluding those in the epi- or perimysium) using MetaMorph software (Molecular Devices). The total area encircled by perilipin-1 was calculated for all lipid deposits across the muscle and expressed relative to the total cross-sectional area. PDGFRα and AnxA2 positive area was calculated using CellSens software (Olympus) by thresholding to remove non-specific staining and calculating the total positive area (again, excluding any epi- or perimysial staining) relative to the entire muscle cross-section.
For in vivo studies, 12Mo B6A/J mice were treated thrice weekly with batimastat (Sigma-Aldridge, #SML0041), 2 mg/kg i.p. for 10 weeks. At the end of the treatment period, the effect of batimastat on disease pathology was evaluated by quantification of perilipin-1 marked lipid area in the gastrocnemius and compared to untreated controls. […]

Assay [2] concerns B6A/J mice. The assay is described as follows: Repeat notexin-induced TA injury in batimastat-treated B6A/J mice. The class given is in vivo, mouse. Here is the method:
as §1, with “Taken together, the above results both confirm the essential nature of FAP adipogenesis for the adipogenic conversion of dysferlinopathic muscle, and highlight the potential of batimastat to arrest the progressive and even late stage adipogenic replacement of dysferlinopathic muscle.” left out
as §2, with “cross-section. […]” for “cross-section.”

Assay [3] has as its system cultured adipogenic precursors and WT mouse FAPs. The conditions noted are these: previously shown; cited from earlier work.
The next assay has as its system mdx mice. The conditions noted are these: previously shown; cited from earlier work.
Setting [4] is: 12Mo B6A/J mice, 2 mg/kg i.p. 3× weekly for 10 weeks.

For the compound `CNC(=O)[C@H](Cc1ccccc1)NC(=O)[C@H](CC(C)C)[C@H](CSc1cccs1)C(=O)NO` [batimastat], in the assay on B6A/J mice [1] (setting [4]), the “FAP number (PDGFRα labeling) in gastrocnemius” value is given as “no effect” and the “extent of myofiber central nucleation” value was “did not decrease”. For the same compound, in the assay with B6A/J mice [1] (12Mo B6A/J mice, 2 mg/kg i.p. 3× weekly for 10 weeks, vs untreated mice), the “perilipin-1 labeled area in gastrocnemius” value was “significantly reduced”. Besides, the “intra-muscular fibrosis in gastrocnemius (Masson's trichrome)” value with B6A/J mice [1] (batimastat 2 mg/kg i.p. 3× weekly for 10 weeks) is “no change”. In the assay with B6A/J mice [2] (3 notexin injuries during 10 weeks of batimastat 2 mg/kg i.p. 3× weekly, vs untreated mice), the “reduction in perilipin-1 positive area in TA following repeat notexin injury” value is on record as about 40%. The “intra-muscular fibrosis in injured TA (Masson's trichrome)” value in the assay with B6A/J mice [2] (3 repeat notexin injuries, batimastat 2 mg/kg i.p. 3× weekly for 10 weeks) was “no change”. In addition, in the assay on B6A/J mice [2] (TA, batimastat 2 mg/kg i.p. 3× weekly for 10 weeks), the “FAP accumulation caused by repeat notexin injuries (PDGFRα)” value was “did not reduce”. Besides, the “adipogenesis of cultured adipogenic precursors and WT mouse FAPs” value in assay [3] is listed as “restrict adipogenesis”. In the assay on mdx mice, the “fibrosis in mdx mice” value is reported as “reduce fibrosis” and the “muscle function in mdx mice” value is listed as “increase muscle function”.

(Values after patent US12594278B2, “Method for treatment of muscular dystrophy” (CHILDREN'S NATIONAL MEDICAL CENTER, priority 2019, dated 2026).)
